{"source": "patent US20070042967A1", "about": "“Proteaseome inhibitors for the treatment of herpesviridae infected individuals” (priority 2002, published 2007)", "system": "HCMV IE1/2 enhancer/promoter", "experiment": "TNFα stimulation / basal activity of the HCMV IE1/2 enhancer/promoter, CAT reporter (pRR55) in HL-60 cells", "format": "cell-based, HCMV strain Ad169", "experimental": "As a model for undifferentiated monocyte/granulocyte progenitor cells HL-60, cells (ATCC No. CCL 240) expressing high levels of CD34+ but low levels of typical differentiation antigens like CD11a-c and CD14 on their surface were used. Furthermore, HL-60 cells have retained the ability, to differentiate into granulocytes and monocytes depending on the stimulus. HL-60 cells were grown in RPMI 1640 medium supplemented with 10% fetal calf serum (both certified endotoxin-free, Biochrome, Germany) at 37° C. in a 5% humidified atmosphere. […] The cells were grown up to 1×10^6 cells per ml. HL-60 cells were transiently transfected with the plasmid pRR55 containing the native HCMV strain Ad169 IE1/2 enhancer/promoter region between nucleotides […] and +52 relative to the transcription start site upstream of the chloramphenicol acetyl transferase (CAT) reporter gene (Fickenscher et al., 1989). Plasmid DNA was prepared using the endofree Maxi Kit (QUIAGEN, Germany or Machery & Nagel, Germany) and stored in aliquots at −20° C. Transient transfection was performed using the DEAE transfection protocol (Stein et al., 1993). Per transfection reaction 5×10^5 cells were washed once with FCS-free medium and then resuspendend in 250 μl transfection buffer containing 1×TBS (24 mM Tris-HCl, pH 7.4, 137 mM NaCl, 5 mM KCl, 0.7 mM CaCl2, 0.5 mM MgCl2, 0.6 mM Na2HPO4), 2.5 μg plasmid DNA (1 μg/μl ) and 5 mg/ml DEAE dextran (Pharmacia-Amersham, Germany). To avoid differences in transfection efficiency, cells for parallel probes were transfected in one reaction and splitted after transfection. Transfection occurred for 1 h at 37° C. After that the cells were washed once with FCS-free RPMI 1640 medium and resuspended in medium containing 10% FCS at a concentration of 5×10^5 cells/5 ml. MG-132 (Calbiochemie, Germany) was dissolved in ethanol (5 μg/μl) and stored in aliqotes at −20 ° C. MG-132 was added into the medium at time zero after transfection and 1 h before TNFα (5 ng/ml, human recombinant TNFα; PAN, Germany, stored in aliquots containing 10 μg/μl at −80° C.). The cells were harvested 48 h after transfection, washed once with PBS and resuspended in 70 μl CAT buffer 1 (0.25 M Tris/HCl, pH 7.8, 0.5 mM EDTA). After 10 min of incubation on ice, cell extracts were prepared by repeated frozen/thawing of the cells (routinely 5 times), 10 min incubation at 65 ° C. to inactivate isoenzymes. Cell debris was removed by centrifugation at 12000 rpm for 10 min in an Eppendorf centrifuge. Cell extracts were measured for their protein concentrations using the method of Bradford (Bradford, 1976) and Bradford reagent (Sigma, Germany). Equal quantities of protein were used in the CAT-assay as described by Gorman et al., 1982. 20 μl lysates were incubated with [^14C]chloramphenicol (Hartman Analytic, Germany) and acetyl-CoA (Sigma, Germany) at 37° C. Reaction was stopped by extraction with ethylacetat (Merck, Germany). The acetylated products were quantified after separation by thin-layer chromatography using a thin layer scintillator. […] In the presence of 0.1 μg/ml MG-132 reduced TNFα stimulation by 50% (FIG. 1).\nThe reporter gene plasmid pRR55 contains the whole HCMV IE1/2 enhancer/promoter region between nucleotides +52 and −637 with respect to the IE1 transcriptions start site, upstream of the chloramphenicol acetyltransferase (CAT) gene [Fickenscher H, Stamminger T, Riiger R & Fleckenstein B. The role of a repetetive palindrormic sequence element in the human cytomegalovirus major immediate early enhancer. J Gen Virol 1989; 70:107-123.]. The plasmid was kindly provided by T. Stamminger (Eriangen, Germany). For transient transfection of HL-60 cells we used the DEAE dextran method as described earlier [Stein J, Volk H D, Liebenthal C, Kruger D H & Prosch S. Tumor necrosis factor alpha stimulates the activity of the human cytomegalovirus major immediate early enhancer/promoter in immature monocytic cells. J Gen Virol 1993; 74:2333-2338]. […]", "note": "Where a SMILES comes first, the peptide text is derived from it. The star is where a group is joined. Cbz = O=C(OCc1ccccc1)*", "data": [{"smiles": "CC(C)C[C@@H](C=O)NC(=O)[C@H](CC(C)C)NC(=O)[C@H](CC(C)C)NC(=O)OCc1ccccc1", "note": "[MG-132, N-carbobenzoxy-L-leucinyl-L-leucinyl-L-leucinal] (Cbz-Leu-Leu-Leu-aldehyde)", "values": [{"measurement": "reduction of TNFα stimulation", "setting": "0.1 μg/ml, HL-60, TNFα 5 ng/ml", "value": 50, "unit": "%"}, {"measurement": "decrease of TNFa-mediated stimulation", "setting": "0.8 μM, HL-60", "value": "about 80%"}, {"measurement": "concentrations that inhibit basic, TNFα-independent activity of the IE1/2 enhancer/promoter", "setting": "HL-60, without TNFα", "value": "above 0.5 μg/ml"}]}]}
